Test results from publication doi:10.1101/2024.10.27.620470v1 (biorxiv, 2024).

target: G3BP1NTF-2-GFP (Homo sapiens, UniProt Q13283); experiment: fluorescence plate PPI inhibition assay; format: biochemical
Sequence (Q13283 1-139): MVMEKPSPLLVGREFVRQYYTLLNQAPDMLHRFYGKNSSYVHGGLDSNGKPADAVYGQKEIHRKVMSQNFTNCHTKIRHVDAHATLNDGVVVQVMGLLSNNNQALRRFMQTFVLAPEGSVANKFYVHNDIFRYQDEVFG

**Q.** `CN1C[C@H](C(=O)N[C@]2(C)O[C@@]3(O)[C@@H]4CCCN4C(=O)[C@H](Cc4ccccc4)N3C2=O)C[C@@H]2c3cccc4[nH]cc(c34)C[C@H]21` [Dihydroergotamine] was tested. Which IC50 did it give?
**A.** The IC50 was 13.2 ± 5.8 µM.

**Q.** How did the IC50 turn out when `O=C1NCN(c2ccccc2)C12CCN(CCCC(c1ccc(F)cc1)c1ccc(F)cc1)CC2` [Fluspirilene] was run?
**A.** The IC50 was 10.5 ± 1.8 µM.

**Q.** With `CNC(=O)c1c(F)cccc1Nc1nc(Nc2cc3c(cc2OC)CCN3C(=O)CN(C)C)nc2[nH]ccc12` [GSK1838705A] as the molecule, how does the IC50 read?
**A.** The IC50 was 14.5 ± 4.9 µM.

**Q.** For `COc1ccc(Br)cc1S(=O)(=O)NC(=O)/C=C/c1ccccc1Cc1ccc2ccccc2c1` [L-798106], which IC50 is on record?
**A.** Its IC50 is 11.6 ± 4.5 µM.

**Q.** How did the IC50 turn out when `CC[C@H](NC(=O)c1c(C)c(-c2ccccc2)nc2ccccc12)c1ccccc1` [SB_222200] was run?
**A.** Its IC50 is 13 ± 0.6 µM.
